# Test results as given in patent US9045443B2, “Nitric oxide donor neprilysin inhibitors” (Theravance Biopharma R&D IP, LLC, priority 2012, dated 2015).
# Molecular target: T1, human NEP (Homo sapiens, UniProt P08473)
# T1 construct: purchased R&D Systems, Minneapolis, Minn; 1182-ZN
# Experiment: In vitro enzyme inhibition assay at human NEP (Assay 1)
# Assay type: biochemical
# Conditions: recombinant human NEP, fluorogenic peptide substrate 10 μM, 37° C.; values may be affected by hydrolysis in the assay conditions, approximations; read-out: pKi at human NEP (converted)
# Experimental: The inhibitory activities of compounds at human and rat neprilysin (EC 3.4.24.11; NEP) and human angiotensin converting enzyme (ACE) were determined using in vitro assays as described below.
# Recombinant human NEP and recombinant human ACE were obtained commercially (R&D Systems, Minneapolis, Minn., catalog numbers 1182-ZN and 929-ZN, respectively). The fluorogenic peptide substrate Mca-D-Arg-Arg-Leu-Dap-(Dnp)-OH (Medeiros et al. (1997) Braz. J. Med. Biol. Res. 30:1157-62; Anaspec, San Jose, Calif.) and Abz-Phe-Arg-Lys(Dnp)-Pro-OH (Araujo et al. (2000) Biochemistry 39:8519-8525; Bachem, Torrance, Calif.) were used in the NEP and ACE assays respectively.
# The assays were performed in 384-well white opaque plates at 37° C. using the fluorogenic peptide substrates at a concentration of 10 μM in Assay Buffer (NEP: 50 mM HEPES, pH 7.5, 100 mM NaCl, 0.01% polyethylene glycol sorbitan monolaurate (Tween-20), 10 μM ZnSO4; ACE: 50 mM HEPES, pH 7.5, 100 mM NaCl, 0.01% Tween-20, 1 μM ZnSO4).
# Test compounds were assayed over the range of concentrations from […] to 20 μM. Test compounds were added to the enzymes and incubated for 30 minute at 37° C. prior to initiating the reaction by the addition of substrate. Reactions were terminated after 20 minutes of incubation at 37° C. by the addition of glacial acetic acid to a final concentration of 3.6% (v/v).
# Plates were read on a fluorometer with excitation and emission wavelengths set to 320 nm and 405 nm, respectively Inhibition constants were obtained by nonlinear regression of the data using the equation (GraphPad Software, Inc., San Diego, Calif.): v=v0/[1+(I/K′)] where v is the reaction rate, v0 is the uninhibited reaction rate, I is the inhibitor concentration and K′ is the apparent inhibition constant.
# Compounds of the invention were tested in this assay and found to have pKi values at human NEP as follows, noting however, that these values may be affected by hydrolysis in the assay conditions and are therefore approximations of activity.
# T1 sequence (P08473 52-750 limits assumed): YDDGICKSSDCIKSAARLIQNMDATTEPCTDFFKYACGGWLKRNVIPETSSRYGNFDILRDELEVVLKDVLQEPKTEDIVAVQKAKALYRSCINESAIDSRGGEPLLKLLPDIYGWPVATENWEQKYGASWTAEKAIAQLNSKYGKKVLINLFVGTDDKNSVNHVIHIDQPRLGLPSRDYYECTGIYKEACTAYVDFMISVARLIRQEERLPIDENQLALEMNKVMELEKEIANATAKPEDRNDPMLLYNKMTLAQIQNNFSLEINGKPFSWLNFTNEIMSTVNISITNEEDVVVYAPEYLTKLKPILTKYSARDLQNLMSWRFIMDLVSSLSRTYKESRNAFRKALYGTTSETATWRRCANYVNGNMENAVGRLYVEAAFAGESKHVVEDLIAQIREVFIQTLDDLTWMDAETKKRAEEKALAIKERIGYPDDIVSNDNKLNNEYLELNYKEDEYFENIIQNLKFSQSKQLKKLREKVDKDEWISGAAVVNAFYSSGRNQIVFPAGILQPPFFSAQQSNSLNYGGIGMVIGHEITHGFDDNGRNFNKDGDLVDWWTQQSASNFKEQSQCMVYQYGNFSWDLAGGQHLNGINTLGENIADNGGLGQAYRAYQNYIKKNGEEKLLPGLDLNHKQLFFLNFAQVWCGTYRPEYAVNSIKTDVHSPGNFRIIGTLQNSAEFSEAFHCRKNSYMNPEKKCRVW
row,Ki [nM],Compound
1,31.6 to 100,"O=C(N[C@H](Cc1ccc(-c2ccccc2)cc1)C[C@@H](O)C(=O)OCCCCOc1no[n+]([O-])c1S(=O)(=O)c1ccccc1)c1cc(O)no1 [Example 2, (2R,4R)-5-Biphenyl-4-yl-2-hydroxy-4-[(3-hydroxyisoxazole-5-carbonyl)amino]pentanoic Acid 4-(4-Benzenesulfonyl-5-oxyfurazan-3-yloxy)butyl Ester]"
2,316 to 1000,"O=C(O)C(=O)N[C@H](Cc1ccc(-c2ccccc2)cc1)C[C@@H](O)C(=O)OCCCCO[N+](=O)[O-] [Example 3, (2R,4R)-5-Biphenyl-4-yl-2-hydroxy-4-(oxalylamino)-pentanoic Acid 4-Nitrooxybutyl Ester]"
3,316 to 1000,"O=C(O)C(=O)N[C@H](Cc1ccc(-c2ccccc2)cc1)C[C@@H](O)C(=O)OCCCCOc1no[n+]([O-])c1S(=O)(=O)c1ccccc1 [Example 4, (2R,4R)-5-Biphenyl-4-yl-2-hydroxy-4-(oxalylamino)-pentanoic Acid 4-(4-Benzenesulfonyl-5-oxyfurazan-3-yloxy)butyl Ester]"

row,Compound,Ki [nM]
1,"O=C(N[C@H](Cc1ccc(-c2ccccc2)cc1)C[C@@H](O)C(=O)OCCCCO[N+](=O)[O-])c1cc(O)no1 [Example 1, (2R,4R)-5-Biphenyl-4-yl-2-hydroxy-4-[(3-hydroxyisoxazole-5-carbonyl)amino]pentanoic Acid 4-Nitrooxybutyl Ester]",31.6 to 100
